Measurements: patent US20220047687A1, “CHEMICAL SCALPEL” (FUNDACIÓN INSTITUTO DE INVESTIGACIÓN SANITARIA FUNDACIÓN …, priority 2019, published 2022)
Entries after “also recorded” stand apart in the source; their conditions may differ.

Experiments:
mutated KRAS oncogene = assay: Digital PCR of KRAS in plasma; format: in vivo, rat; details: plasma
Experimental: The procedure was performed 2 times in the TCQ group, the first time with collagenase and after 2 minutes peritoneal washing with mitomycin C at the different concentrations to be tested was repeated. […] Blood was also collected from all the animals before sacrificing them, the blood was processed within the hour following its extraction to obtain plasma and to analyze, on one hand, the existence of the mutated KRAS oncogene (mutation in codon 12 of exon 1 expressed by DHD cells), and on the other hand the existence of collagenase traces or residues in blood after the peritoneal washes. A digital PCR was used for the KRAS oncogene localization study. For the collagenase trace study, the anonymized samples were sent to Lyposmol laboratories for the performance of specific anti-MMP-1 and anti-MMP-2 ELISAS.
To analyze the presence of mutated KRAS in the blood of the different groups by means of digital PCR, DNA was extracted from at least 2 ml of plasma/group by means of the QlAamp Circulating Nucleic Acid kit according to the manufacturer's data and the results were those listed in Table 4.

[1] = test system: tissue originating from patients with peritoneal carcinomatosis; assay: In vitro collagenase treatment of patient tumor tissue fragments; format: cell-based, human; details: for cells released from tissues: culture at 96 hours
Experimental: After obtaining authorization from the Committee for Research with Medicinal Products (PIC 75/2016_FJD) of Fundación Jiménez Díaz, the tissue originating from patients with peritoneal carcinomatosis who signed the consent was collected. Tissue fragments were included in multiwell plates and treated with 35 U/mL of collagenase for 30 minutes or for a period of 24 hrs, the cultures were then washed and cells obtained from the enzyme treatment were analyzed. The idea was to check at different times if mesothelial cells were obtained alone or tumor cells were obtained as well. FIG. 1.

peritoneal tissues [2] = assay: Safety, histology and biochemistry in the adhesion model
Experimental: The concentration of collagenase used was 0.05% in PBS, with an application time of 20 min, in a volume of 20 ml, and at a temperature of 37° C. in a thermal blanket and with prior tempering of the drug.
Blood was drawn from all the rats by intracardiac puncture for biochemistry and cytokines.

peritoneal tissues [3] = assay: First tests of peritoneal washing with collagenase on mouse (fine-tuning); details: for necropsy findings: mice
Experimental: Six 5-week old double knock-out female mice (LIPDKO), from which the lipocalin-2 gene (which affects neutrophil recruitment) and the ApoE gene (which makes it more probable for the mice to develop atherosclerosis) have been eliminated, were used. […] Each concentration was injected to 2 mice according to their weight.
Cells obtained from washing which grew in culture dishes as well as the morphology of the peritoneal tissues after washing at different concentrations were analyzed.
Once the enzyme dose was selected, the actuation time was determined in the same manner and on the same model by means of tests from 40, 30, 20, 10, and 5 minutes. Throughout this fine-tuning method, the washing liquid was collected and cultured in a complete medium to analyze the cells obtained; different organs of the animals were also collected at the same time to check for the existence at any time (concentration/time) of any organ damage and to check the condition of the peritoneal tissues.

[4] = test system: mesothelial layer covering the intestinal tract; assay: First tests of peritoneal washing with collagenase on rat (Wistar); format: in vivo; details: optimum concentration and time (35 U/mL, 10-15 minutes)
Experimental: For the purpose of fine-tuning the volume of the cavity and the optimum treatment time so that no organ in the cavity will sustain any damage, twenty 6-week old Wistar rats weighing 250 grams were used, and they were tested at different concentrations of 35 U/mL of collagenase and 37 U/mL of collagenase for clinical use. Up until now, all the studies had been performed with collagenase for experimental use, nevertheless, the choice was made to use collagenase authorized for clinical use from now on, taking into account the potency equivalence calculations requested from the manufacturer. A study was then conducted using different times of treatment with collagenase from 2 minutes to 30 minutes (30, 20, 15, 10, 5, and 2) with n=2 in the 4 intermediate times.

cytokines and chemokines = assay: Cytokines circulating in plasma after collagenase washing; format: in vivo, rat
Experimental: A new blood test was performed with the 10 rats in the 1st group. For each of them, blood was taken 15 days after surgery. Post-collagenase cytokines were analyzed.
A new blood test is performed on the 6 rats in the 2nd group on 26/07/2018 and on the 4 controls.
Post-collagenase cytokines are analyzed

[5] = test system: abdominal organs and peritoneum; assay: Survival and necropsy of healthy rats after peritoneal washing (groups A, B); details: group A, collagenase 37 U/mL; 1 died after surgery due to evisceration
From the text: During this phase, a series of survival experiments were established with various work groups and subgroups to learn about the co-adjuvant or enhancing role of collagenase in the treatment of peritoneal tumors with chemotherapeutic agents such as mitomycin C:
Each group initially consisted of 6 rats (2×3). In the initial design, 3 animals were sacrificed after 15 days and the rest were left until the conditions of the animals required them to be sacrificed (subcutaneous tumor growth >0.5 cm in diameter) or a maximum of 2 months.

[6] = test system: peritoneal carcinomatosis (DHD cells); assay: Adjusting the dose of collagenase as co-adjuvant in rats with carcinomatosis; format: in vivo, rat; details: 10 minutes, 37° C.
Experimental: In this sense, after the inoculation of DHD cells in all the animals, and therefore the induction of solid tumors in the peritoneum (peritoneal carcinomatosis), the optimum dose of collagenase in terms of safety for use thereof as a co-adjuvant for or enhancer of chemotherapy treatment with mitomycin C in various work groups was determined: • Control group: washed only with Ringer's lactate. The mesoderm readily separates and washing is non-hematic. Compact omentum. • Group 1: 370 U/mL of collagenase. Hematic washing liquid, destruction of the omentum and mesoderm. Tumor fragments in the washing liquid. • Group 2: 148 U/mL of collagenase. Slightly hematic washing liquid, readily separable omentum and mesoderm. Solid tumor fragments are observed in the washing liquid. • Group 3: 74 U/mL of collagenase. Non-hematic washing liquid, readily separable omentum and mesoderm. Few implants are observed in the washing liquid but the accessibility of the tumor implants in the mesoderm and omentum is absolute. • Group 4: 37 U/mL of collagenase. Non-hematic washing liquid, readily separable omentum and mesoderm. No tumor implants observed in the washing liquid, but they are seen to be completely exposed in both the mesoderm and omentum.
The surgical procedures during this phase consisted of a first method of peritoneal cancer induction in which DHD cells were injected into the peritoneum and 6-8 weeks were allowed to elapse until the checking for the existence of tumor masses in the peritoneum by means of abdominal palpation, and a second method of treatment in which, after giving the animals inhalation anesthesia, the abdominal cavity was exposed by means of a longitudinal incision of the abdomen, the peritoneal cavity filled with the collagenase solution at the different concentrations to be tested at 37° C.

Collagenase
Mutated KRAS event no. (mutated KRAS oncogene; group A (healthy rats, collagenase 37 U/mL)): 0 | Mutated KRAS event no. (mutated KRAS oncogene; group F (DHD + collagenase 37 U/mL)): 1 | effect of collagenase on tumor tissues in vitro ([1]; 35 U/mL): breaks the edges of the tissues, releasing mesothelial cells and limiting tumor vascularization | enzyme time beyond which tissues become damaged and viability of extracted cells is inhibited ([1]; in vitro): exceeding 45 minutes | cells released from tissues ([1]; tissues digested for 30 minutes): mesothelial cells released by collagenase | cells released from tissues ([1]; tissues digested for 24 hours): release of cells with tumor morphology and highly refringent mesothelial cells | release of adhesions (final conclusion) (peritoneal tissues [2]; 37 mg/Kg for 20 minutes at 37° C. as a peritoneal washing, murine model): favors the release of adhesions | other relevant finding upon application of the treatment (peritoneal tissues [2]; 0.05% in PBS, 20 min, 20 ml, 37° C.): pancreatic reaction | safety of intraperitoneal application (peritoneal tissues [2]; 0.05%, vigorous washing at 37° C. for 20 minutes, murine model): safe for intraperitoneal application in a murine model, without associated mortality | analysis of the models at euthanasia, drug vs PBS (peritoneal tissues [2]; 2 months after the use of drug or PBS): did not show any significant differences; also recorded: fewer adhesions did subjectively appear | histological study of tissues (peritoneal tissues [2]; animals with small or large meshes, peritoneal washing with collagenase): are not affected | amylase (peritoneal tissues [2]; both study groups): increases in both study groups | biochemical or hematologic parameters (peritoneal tissues [2]; serial tests, immediately and at different points of control after the intervention): without finding significant differences with the control groups | clinical observations half an hour after administration (peritoneal tissues [3]; mice 5 and 6, highest doses of collagenase): lethargic, exhibited signs of pain and a very reduced response to handling; also recorded: the abdominal wall had become detached | mortality (peritoneal tissues [3]; mice with the highest doses of collagenase): died within one hour | necropsy findings (peritoneal tissues [3]; 17.5 U/mL and 8.75 U/mL (one mouse each line)): somewhat hematic abdominal wall that has experienced the least thinning; also recorded: abdominal wall with a normal appearance and color | necropsy findings (peritoneal tissues [3]; 35 U/mL): very thin hematic abdominal wall that ruptures by itself | necropsy findings (peritoneal tissues [3]; 87.5 U/mL): hematic, practically transparent abdominal wall that completely comes off the skin and ruptures by itself when touched | clinical observations half an hour after administration (peritoneal tissues [3]; one mouse, 35 U/mL): responded well to handling but exhibited signs of pain | macroscopic and histological findings [4]: No organ or tissue impairment is observed histologically; also recorded: elimination of the mesothelial cells covering the intestine and omentum is observed but without the involvement of any organ; also recorded: thinning of the mesothelial layer covering the intestinal tract without the involvement of intermediate or internal layers | IL4 in plasma vs PBS (cytokines and chemokines; anti-inflammatory cytokine): Insignificant increase | IL10 in plasma vs PBS (cytokines and chemokines; anti-inflammatory cytokine): Insignificant increase | levels of all the cytokines and chemokines between the 2 groups (cytokines and chemokines; at four months): normalized | G-CSF in plasma vs PBS (cytokines and chemokines; chemokines): no difference | GM-CSF in plasma vs PBS (cytokines and chemokines; chemokines): no difference | KC in plasma vs PBS (cytokines and chemokines; chemokines): no difference | M-MCF in plasma vs PBS (cytokines and chemokines; chemokines): no difference | MCP1 in plasma vs PBS (cytokines and chemokines; chemokines): significant increase | MIP3a in plasma vs PBS (cytokines and chemokines; chemokines): no difference | MIPla in plasma vs PBS (cytokines and chemokines; chemokines): no difference | RANTRES in plasma vs PBS (cytokines and chemokines; chemokines): no difference | VEGF in plasma vs PBS (cytokines and chemokines; chemokines): significant increase | IL12-p70 in plasma vs PBS (cytokines and chemokines; pro-inflammatory cytokine): Significant increase (p<0.01) | INF-gamma in plasma vs PBS (cytokines and chemokines; pro-inflammatory cytokine): no differences | TNF-alpha in plasma vs PBS (cytokines and chemokines; pro-inflammatory cytokine): Significant increase (p<0.01) | IL1a in plasma vs PBS (cytokines and chemokines; regulatory cytokine): no difference | IL1b in plasma vs PBS (cytokines and chemokines; regulatory cytokine): no difference | IL2 in plasma vs PBS (cytokines and chemokines; regulatory cytokine): significant increase (p<0.05) | IL5 in plasma vs PBS (cytokines and chemokines; regulatory cytokine): no difference | IL6 in plasma vs PBS (cytokines and chemokines; regulatory cytokine): no difference | IL7 in plasma vs PBS (cytokines and chemokines; regulatory cytokine): no difference | IL13 in plasma vs PBS (cytokines and chemokines; regulatory cytokine): no difference | IL17a in plasma vs PBS (cytokines and chemokines; regulatory cytokine): no difference | IL18 in plasma vs PBS (cytokines and chemokines; regulatory cytokine): significant increase (p<0.05) | survival [5]: 4 out of 5 | washing liquid, omentum, mesoderm and tumor implants after washing ([6]; Group 1: 370 U/mL): Hematic washing liquid, destruction of the omentum and mesoderm. Tumor fragments in the washing liquid. | washing liquid, omentum, mesoderm and tumor implants after washing ([6]; Group 2: 148 U/mL): Slightly hematic washing liquid, readily separable omentum and mesoderm. Solid tumor fragments are observed in the washing liquid. | washing liquid, omentum, mesoderm and tumor implants after washing ([6]; Group 3: 74 U/mL): Non-hematic washing liquid, readily separable omentum and mesoderm. Few implants are observed in the washing liquid but the accessibility of the tumor implants in the mesoderm and omentum is absolute. | washing liquid, omentum, mesoderm and tumor implants after washing ([6]; Group 4: 37 U/mL): Non-hematic washing liquid, readily separable omentum and mesoderm. No tumor implants observed in the washing liquid, but they are seen to be completely exposed in both the mesoderm and omentum.
